Reference: the RepoRT retention time repository (doi:10.1021/es4044374)

Assay: RP, Waters XBridge C18, 50 × 2.1 mm, 3.5 µm, 30 °C, 0.2 mL/min, estimated dead time 0.55 min; A: water + 0.1% formic acid, pH 3; B: methanol + 0.1% formic acid, pH 3; gradient (min/%B) 0/10 4/50 17/95 25/95 25.1/10 30/10
Details: stereoisomer not certain

Compound	LC retention time [min]
N#Cc1nn(-c2c(Cl)cc(C(F)(F)F)cc2Cl)c(N)c1C(F)(F)F [Fipronil-desulfinyl]	12.5
N#Cc1nn(-c2c(Cl)cc(C(F)(F)F)cc2Cl)c(N)c1SC(F)(F)F [Fipronil-sulfide]	13
N#Cc1nn(-c2c(Cl)cc(C(F)(F)F)cc2Cl)c(N)c1S(=O)(=O)C(F)(F)F [Fipronil-sulfone]	13.5
N#Cc1nn(-c2c(Cl)cc(C(F)(F)F)cc2Cl)c(N)c1S(=O)C(F)(F)F (stereo unspecified) [Fipronil]	12.6
N#CCNC(=O)c1cnccc1C(F)(F)F [Flonicamid]	3.9
CC(Oc1ccc(Oc2ccc(C(F)(F)F)cn2)cc1)C(=O)O (stereo unspecified) [Fluazifop]	10.9
O=[N+]([O-])c1cc(C(F)(F)F)c(Cl)c([N+](=O)[O-])c1Nc1ncc(C(F)(F)F)cc1Cl [Fluazinam]	15.9
OC(Cn1cncn1)(Cn1cncn1)c1ccc(F)cc1F [Fluconazole]	5.3
N#Cc1c[nH]cc1-c1cccc2c1OC(F)(F)O2 [Fludioxonil]	10.7
CC(C)N(C(=O)CS(=O)(=O)O)c1ccc(F)cc1 [Flufenacet ESA]	6
CC(C)N(C(=O)C(=O)O)c1ccc(F)cc1 [Flufenacet OXA]	6.2
CC(C)N(C(=O)COc1nnc(C(F)(F)F)s1)c1ccc(F)cc1 [Flufenacet]	11.7
O=C(O)c1ccccc1Nc1cccc(C(F)(F)F)c1 [Flufenamic acid]	14.6
CNCCC(Oc1ccc(C(F)(F)F)cc1)c1ccccc1 (stereo unspecified) [Fluoxetine]	9.2
Nc1c(Cl)c(F)nc(OCC(=O)O)c1Cl [Fluroxypyr]	6.9
C[Si](Cn1cncn1)(c1ccc(F)cc1)c1ccc(F)cc1 [Flusilazole]	12.4
COc1cc(OC)nc(NC(=O)NS(=O)(=O)c2cc(NC=O)ccc2C(=O)N(C)C)n1 [Foramsulfuron]	7.8
NS(=O)(=O)c1cc(C(=O)O)c(NCc2ccco2)cc1Cl [Furosemide]	6.8
NCC1(CC(=O)O)CCCCC1 [Gabapentin]	3.6
CC1COC(=O)c2cc3c(cc21)C(C)(C)C(C)C3(C)C (stereo unspecified) [Galaxolidone]	14.7
Nc1ccn(C2OC(CO)C(O)C2(F)F)c(=O)n1 (stereo unspecified) [Gemcitabine]	1
NS(=O)(=O)c1cc2c(cc1Cl)NCNS2(=O)=O [Hydrochlorothiazide]	2.2

Compound	LC retention time [min]
CC(C)Cc1ccc(C(C)C(=O)O)cc1 (stereo unspecified) [Ibuprofen]	13.6
O=P1(NCCCl)OCCCN1CCCl (stereo unspecified) [Ifosfamide]	6.3
COCc1cnc(C2=NC(C)(C(C)C)C(=O)N2)c(C(=O)O)c1 (stereo unspecified) [Imazamox]	5.7
O=C1NCCN1Cc1ccc(Cl)nc1 [Imidacloprid-urea]	4.6
O=[N+]([O-])/N=C1\NCCN1Cc1ccc(Cl)nc1 [Imidacloprid]	4.8
C1=Cc2ccccc2Nc2ccccc21 [Iminostilbene]	11
COc1ccc2c(c1)c(CC(=O)O)c(C)n2C(=O)c1ccc(Cl)cc1 [Indomethacin]	12.9
CN(CC(O)CO)C(=O)c1c(I)c(NC(=O)C(CO)CO)c(I)c(C(=O)N(C)CC(O)CO)c1I (stereo unspecified) [Iobitridol]	1.6
CCCCNC(=O)OCC#CI [Iodocarb]	8.4
CC(=O)N(CC(O)CO)c1c(I)c(C(=O)NCC(O)CO)c(I)c(C(=O)NCC(O)CO)c1I (stereo unspecified) [Iohexol]	1.6
CN(C(=O)CO)c1c(I)c(C(=O)NCC(O)CO)c(I)c(C(=O)NCC(O)CO)c1I (stereo unspecified) [Iomeprol]	1.6
CC(O)C(=O)Nc1c(I)c(C(=O)NC(CO)CO)c(I)c(C(=O)NC(CO)CO)c1I (stereo unspecified) [Iopamidol]	1.2
COCC(=O)Nc1c(I)c(C(=O)NCC(O)CO)c(I)c(C(=O)N(C)CC(O)CO)c1I (stereo unspecified) [Iopromide]	2.7
CC(=O)Nc1c(I)c(C(=O)O)c(I)c(C(=O)NCCO)c1I [Ioxitalamic acid]	1.3
N#Cc1cc(I)c(O)c(I)c1 [Ioxynil]	9.3
Cc1ccc(C(C)NC(=O)C(NC(=O)OC(C)C)C(C)C)cc1 (stereo unspecified) [Iprovalicarb]	11.4
CCCCC1=NC2(CCCC2)C(=O)N1Cc1ccc(-c2ccccc2-c2nn[nH]n2)cc1 [Irbesartan]	9.2
CSc1nc(N)nc(NC(C)(C)C)n1 [Irgarol-descyclopropyl]	6.7
CSc1nc(NC2CC2)nc(NC(C)(C)C)n1 [Irgarol]	9.2
CC(C)c1ccc(NC(N)=O)cc1 [Isoproturon-didemethyl]	8
CNC(=O)Nc1ccc(C(C)C)cc1 [Isoproturon-monodemethyl]	8.6
CC(C)c1ccc(NC(=O)N(C)C)cc1 [Isoproturon]	8.7

Compound	LC retention time [min]
CNC1(c2ccccc2Cl)CCCCC1=O (stereo unspecified) [Ketamine]	4.6
CC(C(=O)O)c1cccc(C(=O)c2ccccc2)c1 (stereo unspecified) [Ketoprofen]	9.6
CON=C(C(=O)OC)c1ccccc1COc1ccccc1C [Kresoxim-methyl]	12.5
Nc1nnc(-c2cccc(Cl)c2Cl)c(N)n1 [Lamotrigine]	5.4
O=c1[nH]c2c(c(=O)n1C1CCCCC1)CCC2 [Lenacil]	8.6
c1ccc(C2CN3CCSC3=N2)cc1 (stereo unspecified) [Levamisole]	2.9
CCC(C(N)=O)N1CCCC1=O (stereo unspecified) [Levetiracetam]	3
CCN(CC)CC(=O)Nc1c(C)cccc1C [Lidocaine]	4.2
CON(C)C(=O)Nc1ccc(Cl)c(Cl)c1 [Linuron]	10
Cc1cc(Cl)ccc1OCC(=O)O [MCPA]	9.5
Cc1cc(Cl)ccc1OCCCC(=O)O [MCPB]	11.9
Cc1cc(Cl)ccc1OC(C)C(=O)O (stereo unspecified) [Mecoprop]	10.8
Cc1cccc(Nc2ccccc2C(=O)O)c1C [Mefenamic acid]	14.5
CNC(C)C(=O)c1ccc(C)cc1 (stereo unspecified) [Mephedrone]	4.3
CS(=O)(=O)c1ccc(C(=O)C2C(=O)CCCC2=O)c([N+](=O)[O-])c1 [Mesotrione]	6.2
COCC(=O)N(c1c(C)cccc1C)C(C)C(=O)OC (stereo unspecified) [Metalaxyl]	8.7
Cc1nnc(-c2ccccc2)c(=O)[nH]1 [Metamitron-desamino]	5.1
Cc1nnc(-c2ccccc2)c(=O)n1N [Metamitron]	4.9
Cc1cccc(C)c1N(Cn1cccn1)C(=O)CS(=O)(=O)O [Metazachlor ESA]	5.5
Cc1cccc(C)c1N(Cn1cccn1)C(=O)C(=O)O [Metazachlor OXA]	5.5
Cc1cccc(C)c1N(Cn1cccn1)C(=O)CCl [Metazachlor]	8.5
CN(C)C(=N)N=C(N)N [Metformin]	0.8
